Measurements taken from patent US12723063B2, “GIPR-agonist compounds” (Eli Lilly and Company, priority 2019, dated 2026).
*1 amine or outer side, *2 acyl side, *3 side chain or, on linkers, in order; H or OH if unused. Where a SMILES comes first, the peptide text is derived from it. Side-chain parts run from the residue outwards. [ ]: non-standard residue; d: D form. The star is where a group is joined. C20 diacid = O=C(O)CCCCCCCCCCCCCCCCCCC(=O)*; C18 diacid = O=C(O)CCCCCCCCCCCCCCCCC(=O)*; αMePhe(2-F) = C[C@](N)(Cc1ccccc1F)C(=O)O; γGlu = O=C(O)[C@H](CCC(=O)[*:2])N[*:1]; αMeY = C[C@](N)(Cc1ccc(O)cc1)C(=O)O; αMeL = CC(C)C[C@](C)(N)C(=O)O; AEEA = NCCOCCOCC(=O)O; Aib = CC(C)(N)C(=O)O

How the values were obtained:
[1] = biological target: T1, human glucagon receptor (GcgR) (Homo sapiens, UniProt P47871); assay: cAMP functional assay (HTRF) in HEK293 cells in presence of 0.1% casein; type: cell-based; conditions: HEK293 cells expressing human GcgR, geometric mean, read-out: hGcgR cAMP Rel EC50 nM (SEM, n)
T1 construct: expressed in transfected cells; host or cells: HEK293
T1 sequence (P47871 26-477): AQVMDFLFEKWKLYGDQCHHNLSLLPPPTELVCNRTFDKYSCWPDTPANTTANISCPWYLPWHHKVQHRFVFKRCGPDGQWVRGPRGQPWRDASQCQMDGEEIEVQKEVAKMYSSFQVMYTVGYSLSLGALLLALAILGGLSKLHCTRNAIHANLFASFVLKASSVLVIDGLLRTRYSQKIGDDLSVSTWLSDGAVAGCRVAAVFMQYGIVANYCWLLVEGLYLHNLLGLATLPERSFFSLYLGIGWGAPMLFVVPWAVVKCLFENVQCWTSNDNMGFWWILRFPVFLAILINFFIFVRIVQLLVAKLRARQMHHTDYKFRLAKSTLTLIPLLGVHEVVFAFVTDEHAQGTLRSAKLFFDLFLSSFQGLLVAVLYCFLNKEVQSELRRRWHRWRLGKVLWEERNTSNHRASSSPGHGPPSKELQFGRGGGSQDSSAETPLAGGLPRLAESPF

[2] = biological target: T2, human glucose-dependent insulinotropic peptide receptor (GIPR) (Homo sapiens, UniProt P48546); assay: as above; type: cell-based; conditions: HEK293 cells expressing human GIPR, geometric mean, read-out: hGIPR cAMP Rel EC50 nM (SEM, n)
T2 construct: expressed in transfected cells; host or cells: HEK293
T2 sequence (P48546 22-466): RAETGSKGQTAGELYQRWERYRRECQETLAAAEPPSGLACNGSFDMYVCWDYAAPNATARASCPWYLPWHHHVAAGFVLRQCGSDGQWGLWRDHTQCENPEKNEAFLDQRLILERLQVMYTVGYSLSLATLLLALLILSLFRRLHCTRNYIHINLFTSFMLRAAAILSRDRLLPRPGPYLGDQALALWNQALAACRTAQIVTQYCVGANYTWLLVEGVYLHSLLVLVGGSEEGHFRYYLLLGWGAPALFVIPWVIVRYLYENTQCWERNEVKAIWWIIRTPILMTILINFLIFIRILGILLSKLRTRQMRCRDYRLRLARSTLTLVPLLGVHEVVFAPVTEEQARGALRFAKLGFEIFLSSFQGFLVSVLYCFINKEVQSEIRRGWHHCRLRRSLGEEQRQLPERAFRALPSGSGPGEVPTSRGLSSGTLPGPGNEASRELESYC

## CC[C@H](C)[C@H](NC(=O)[C@H](Cc1ccccc1)NC(=O)[C@@H](NC(=O)CNC(=O)[C@H](CCC(=O)O)NC(=O)C(C)(C)NC(=O)[C@@H](N)Cc1ccc(O)cc1)[C@@H](C)O)C(=O)N[C@@H](CO)C(=O)N[C@@H](CC(=O)O)C(=O)N[C@@H](Cc1ccc(O)cc1)C(=O)N[C@@H](CO)C(=O)N[C@H](C(=O)N[C@@](C)(CC(C)C)C(=O)N[C@@H](CC(C)C)C(=O)N[C@@H](CC(=O)O)C(=O)N[C@@H](CCCCN)C(=O)N[C@@H](CCCCNC(=O)COCCOCCNC(=O)COCCOCCNC(=O)CC[C@H](NC(=O)CCCCCCCCCCCCCCCCCCC(=O)O)C(=O)O)C(=O)N[C@@H](Cc1c[nH]cn1)C(=O)N[C@@H](CCC(N)=O)C(=O)NC(C)(C)C(=O)N[C@@H](CC(=O)O)C(=O)N[C@@H](Cc1ccccc1)C(=O)N[C@H](C(=O)N[C@@H](CCC(=O)O)C(=O)N[C@@](C)(Cc1ccc(O)cc1)C(=O)N[C@@H](CC(C)C)C(=O)N[C@@H](CC(C)C)C(=O)N[C@@H](CCC(=O)O)C(=O)N[C@@H](C)C(=O)NCC(=O)N1CCC[C@H]1C(=O)N[C@@H](CO)C(=O)N[C@@H](CO)C(=O)NCC(=O)N[C@@H](C)C(=O)N1CCC[C@H]1C(=O)N1CCC[C@H]1C(=O)N1CCC[C@H]1C(=O)N[C@@H](CO)C(N)=O)C(C)C)[C@@H](C)CC [Example 90] (H-Y[Aib]EGTFISDYSI[αMeL]LDKK([AEEA-AEEA-γGlu-C20 diacid])HQ[Aib]DFVE[αMeY]LLEAGPSSGAPPPS-NH2)
[1]
  EC50: > 5000 nM
[2]
  EC50: 0.0272 nM

## CC[C@H](C)[C@H](NC(=O)[C@H](Cc1ccccc1)NC(=O)[C@@H](NC(=O)CNC(=O)[C@H](CCC(=O)O)NC(=O)C(C)(C)NC(=O)[C@@H](N)Cc1ccc(O)cc1)[C@@H](C)O)C(=O)N[C@@H](CO)C(=O)N[C@@H](CC(=O)O)C(=O)N[C@@H](Cc1ccc(O)cc1)C(=O)N[C@@H](CO)C(=O)N[C@H](C(=O)N[C@@](C)(CC(C)C)C(=O)N[C@@H](CC(C)C)C(=O)N[C@@H](CC(=O)O)C(=O)N[C@@H](CCCCN)C(=O)N[C@@H](CCCCNC(=O)COCCOCCNC(=O)COCCOCCNC(=O)CC[C@H](NC(=O)CCCCCCCCCCCCCCCCCCC(=O)O)C(=O)O)C(=O)N[C@@H](Cc1c[nH]cn1)C(=O)N[C@@H](CCC(N)=O)C(=O)NC(C)(C)C(=O)N[C@@H](CC(=O)O)C(=O)N[C@@H](Cc1ccccc1)C(=O)N[C@H](C(=O)N[C@@H](CCC(=O)O)C(=O)N[C@@](C)(Cc1ccc(O)cc1)C(=O)N[C@@H](CC(C)C)C(=O)N[C@@H](CC(C)C)C(=O)N[C@@H](CCC(=O)O)C(=O)NCC(=O)NCC(=O)N1CCC[C@H]1C(=O)N[C@@H](CO)C(=O)N[C@@H](CO)C(=O)NCC(=O)N[C@@H](C)C(=O)N1CCC[C@H]1C(=O)N1CCC[C@H]1C(=O)N1CCC[C@H]1C(=O)N[C@@H](CO)C(N)=O)C(C)C)[C@@H](C)CC [Example 91] (H-Y[Aib]EGTFISDYSI[αMeL]LDKK([AEEA-AEEA-γGlu-C20 diacid])HQ[Aib]DFVE[αMeY]LLEGGPSSGAPPPS-NH2)
[1]
  EC50: 289 nM
[2]
  EC50: 0.0321 nM

## CC[C@H](C)[C@H](NC(=O)[C@H](CCCCN)NC(=O)[C@H](CC(=O)O)NC(=O)[C@H](CC(C)C)NC(=O)[C@](C)(CC(C)C)NC(=O)[C@@H](NC(=O)[C@H](CO)NC(=O)[C@H](Cc1ccc(O)cc1)NC(=O)[C@H](CC(=O)O)NC(=O)[C@H](CO)NC(=O)[C@@H](NC(=O)[C@H](Cc1ccccc1)NC(=O)[C@@H](NC(=O)CNC(=O)[C@H](CCC(=O)O)NC(=O)C(C)(C)NC(=O)[C@@H](N)Cc1ccc(O)cc1)[C@@H](C)O)[C@@H](C)CC)[C@@H](C)CC)C(=O)N[C@@H](Cc1c[nH]cn1)C(=O)N[C@@H](CCC(N)=O)C(=O)NC(C)(C)C(=O)N[C@@H](CC(=O)O)C(=O)N[C@@H](Cc1ccccc1)C(=O)N[C@H](C(=O)N[C@@H](CCC(=O)O)C(=O)N[C@@H](Cc1ccc(O)cc1)C(=O)N[C@@H](CCCCNC(=O)COCCOCCNC(=O)COCCOCCNC(=O)CC[C@H](NC(=O)CCCCCCCCCCCCCCCCCCC(=O)O)C(=O)O)C(=O)N[C@@H](CC(C)C)C(=O)N[C@@H](CCC(=O)O)C(=O)N[C@@H](CCC(N)=O)C(=O)NCC(=O)N1CCC[C@H]1C(=O)N[C@@H](CO)C(=O)N[C@@H](CO)C(=O)NCC(=O)N[C@@H](C)C(=O)N1CCC[C@H]1C(=O)N1CCC[C@H]1C(=O)N1CCC[C@H]1C(=O)N[C@@H](CO)C(N)=O)C(C)C [Example 92] (H-Y[Aib]EGTFISDYSI[αMeL]LDKIHQ[Aib]DFVEYK([AEEA-AEEA-γGlu-C20 diacid])LEQGPSSGAPPPS-NH2)
[1]
  EC50: > 5000 nM
[2]
  EC50: 0.0191 nM

## CC[C@H](C)[C@H](NC(=O)[C@H](CCCCN)NC(=O)[C@H](CC(=O)O)NC(=O)[C@H](CC(C)C)NC(=O)[C@H](CC(C)C)NC(=O)[C@@H](NC(=O)[C@H](CO)NC(=O)[C@H](Cc1ccc(O)cc1)NC(=O)[C@H](CC(=O)O)NC(=O)[C@H](CO)NC(=O)[C@@H](NC(=O)[C@H](Cc1ccccc1)NC(=O)[C@@H](NC(=O)CNC(=O)[C@H](CCC(=O)O)NC(=O)[C@@H](C)NC(=O)[C@@H](N)Cc1ccc(O)cc1)[C@@H](C)O)[C@@H](C)CC)[C@@H](C)CC)C(=O)N[C@@H](C)C(=O)N[C@@H](CCC(N)=O)C(=O)NC(C)(C)C(=O)N[C@@H](CC(=O)O)C(=O)N[C@@H](Cc1ccccc1)C(=O)N[C@H](C(=O)N[C@@H](CC(N)=O)C(=O)N[C@@H](Cc1c[nH]c2ccccc12)C(=O)N[C@@H](CCCCNC(=O)COCCOCCNC(=O)COCCOCCNC(=O)CC[C@H](NC(=O)CCCCCCCCCCCCCCCCC(=O)O)C(=O)O)C(=O)N[C@@H](CC(C)C)C(=O)N[C@@H](C)C(=O)N[C@@H](CCC(N)=O)C(=O)NCC(=O)N1CCC[C@H]1C(=O)N[C@@H](CO)C(=O)N[C@@H](CO)C(=O)NCC(=O)N[C@@H](C)C(=O)N1CCC[C@H]1C(=O)N1CCC[C@H]1C(=O)N1CCC[C@H]1C(=O)N[C@@H](CO)C(N)=O)C(C)C [Example 93] (H-Y[dA]EGTFISDYSILLDKIAQ[Aib]DFVNWK([AEEA-AEEA-γGlu-C18 diacid])LAQGPSSGAPPPS-NH2)
[1]
  EC50: > 5000 nM
[2]
  EC50: 0.00482 nM

## CC[C@H](C)[C@H](NC(=O)[C@H](CO)NC(=O)[C@H](Cc1ccc(O)cc1)NC(=O)[C@H](CC(=O)O)NC(=O)[C@H](CO)NC(=O)[C@@H](NC(=O)[C@](C)(Cc1ccccc1F)NC(=O)[C@@H](NC(=O)CNC(=O)[C@H](CCC(=O)O)NC(=O)C(C)(C)NC(=O)[C@@H](N)Cc1ccc(O)cc1)[C@@H](C)O)[C@@H](C)CC)C(=O)N[C@@H](C)C(=O)N[C@@H](CC(C)C)C(=O)N[C@@H](CC(=O)O)C(=O)N[C@@H](CCCCN)C(=O)N[C@H](C(=O)N[C@@H](Cc1c[nH]cn1)C(=O)N[C@@H](CCC(N)=O)C(=O)NC(C)(C)C(=O)N[C@@H](CCC(=O)O)C(=O)N[C@@H](Cc1ccccc1)C(=O)N[C@H](C(=O)N[C@@H](CC(N)=O)C(=O)N[C@@H](Cc1ccc(O)cc1)C(=O)N[C@@H](CCCCNC(=O)COCCOCCNC(=O)COCCOCCNC(=O)CC[C@H](NC(=O)CCCCCCCCCCCCCCCCC(=O)O)C(=O)O)C(=O)N[C@@H](CC(C)C)C(=O)N[C@@H](C)C(=O)NCC(=O)NCC(=O)N1CCC[C@H]1C(=O)N[C@@H](CO)C(=O)N[C@@H](CO)C(=O)NCC(=O)N[C@@H](C)C(=O)N1CCC[C@H]1C(=O)N1CCC[C@H]1C(=O)N1CCC[C@H]1C(=O)N[C@@H](CO)C(N)=O)C(C)C)[C@@H](C)CC [Example 94] (H-Y[Aib]EGT[αMePhe(2-F)]ISDYSIALDKIHQ[Aib]EFVNYK([AEEA-AEEA-γGlu-C18 diacid])LAGGPSSGAPPPS-NH2)
[1]
  EC50: > 5000 nM
[2]
  EC50: 0.00436 nM
